Results: ChEMBL document CHEMBL1128927, “Synthesis and biological activities of [N-MeLeu5] didemnin B” (Bioorg Med Chem Lett, 1996)

Columns and labels:
Format in all cases: functional
Oryctolagus cuniculus = species: Oryctolagus cuniculus; assay: In vitro inhibition of protein synthesis in rabbit reticulocyte lysates.
SNB-75 = assay: Compound was evaluated for cytotoxic activity against CNS cancer SNB-75 cell lines.; settings: Homo sapiens, read-out: LC50 (the source's name)
HT-29 = assay: Compound was evaluated for cytotoxic activity against colon cancer HT-29 cell lines.; settings: Homo sapiens, read-out: LC50 (the source's name)
SK-MEL-5 = assay: Compound was evaluated for cytotoxic activity against melanoma Sk-MEL-5 cell lines.; settings: Homo sapiens, read-out: LC50 (the source's name)
RXF 393 = assay: Compound was evaluated for cytotoxic activity against renal cancer RXF-393 cell lines.; settings: Homo sapiens, read-out: LC50 (the source's name)
A549 = assay: Compound was evaluated for cytotoxic activity against non-small lung cancer A549/ATCC cell lines.; settings: Homo sapiens, read-out: LC50 (the source's name)

SMILES	IC50 (Oryctolagus cuniculus) [µM]	CC50 (SNB-75) [µM]	CC50 (HT-29) [µM]	CC50 (SK-MEL-5) [µM]	CC50 (RXF 393) [µM]	CC50 (A549) [µM]
CC[C@H](C)[C@H]1NC(=O)[C@@H](NC(=O)[C@@H](CC(C)C)N(C)C(=O)[C@@H]2CCCN2C(=O)[C@H](C)O)[C@@H](C)OC(=O)[C@H](CC(C)C)N(C)C(=O)[C@@H]2CCCN2C(=O)[C@H](CC(C)C)NC(=O)[C@@H](C)C(=O)[C@H](C(C)C)OC(=O)C[C@@H]1O [listing 1 of 2 here]	9					
CC[C@H](C)[C@H]1NC(=O)[C@@H](NC(=O)[C@@H](CC(C)C)N(C)C(=O)[C@@H]2CCCN2C(=O)[C@H](C)O)[C@@H](C)OC(=O)[C@H](CC(C)C)N(C)C(=O)[C@@H]2CCCN2C(=O)[C@H](CC(C)C)NC(=O)[C@@H](C)C(=O)[C@H](C(C)C)OC(=O)C[C@@H]1O [listing 2 of 2 here]		0.399	0.445	0.0799	0.258	> 25
